Assay results published in ChEMBL document CHEMBL1201862, “PubChem BioAssay data set” (2004).
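Exposure lasted 48 hours, with cells grown in 96-well plates and compounds tested at five concentrations. Abbreviation: GI50, concentration required for 50% inhibition of growth.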 The source made the active and inactive calls. Cut-off read from the data, not from the text of the source: active = GI50 up to about 1.1 µM and inactive = higher.

What was measured:
Experiment in all cases: NCI-60 cell line screen, 48 h
HT-29 = tested on: HT-29
UACC-62 = tested on: UACC-62
T47D = tested on: T47D
RPMI-8226 = tested on: RPMI-8226
NCI-H226 = tested on: NCI-H226
COLO 205 = tested on: COLO 205
SK-OV-3 = tested on: SK-OV-3
K562 = tested on: K562
SNB-19 = tested on: SNB-19
OVCAR-8 = tested on: OVCAR-8
SK-MEL-2 = tested on: SK-MEL-2
SW-620 = tested on: SW-620
MOLT-4 = tested on: MOLT-4
786-0 = tested on: 786-0
ACHN = tested on: ACHN
Hs-578T = tested on: Hs-578T
IGROV-1 = tested on: IGROV-1
HOP-62 = tested on: HOP-62
TK-10 = tested on: TK-10

Measured: GI50

Nc1ccc(Cc2c(N)[nH]c(=O)[nH]c2=O)cc1
inactive: HT-29 > 100 µM | UACC-62 > 100 µM | T47D > 100 µM | RPMI-8226 > 100 µM | NCI-H226 86.1 µM | COLO 205 > 100 µM | SK-OV-3 > 100 µM | K562 > 100 µM | SNB-19 > 100 µM | OVCAR-8 > 100 µM | SK-MEL-2 > 100 µM | SW-620 > 100 µM | MOLT-4 1.61 µM | 786-0 > 100 µM | ACHN > 100 µM | Hs-578T > 100 µM

CCCn1c(SC)nc(COC(=O)NC)c1COC(=O)NC
inactive: HT-29 > 100 µM | IGROV-1 > 100 µM | UACC-62 > 100 µM | T47D > 100 µM | RPMI-8226 > 100 µM | NCI-H226 > 100 µM | COLO 205 > 100 µM | SK-OV-3 > 100 µM | K562 > 100 µM | SNB-19 > 100 µM | OVCAR-8 > 100 µM | SK-MEL-2 > 100 µM | HOP-62 > 100 µM | TK-10 > 100 µM | SW-620 > 100 µM | MOLT-4 > 100 µM | 786-0 > 100 µM | ACHN > 100 µM | Hs-578T > 100 µM

CCOC(=O)CCC(NC(=O)Cc1ccc(Oc2nc3ccccc3nc2-c2ccccc2)cc1)C(=O)OCC (centres undefined)
inactive: HT-29 > 100 µM | UACC-62 > 100 µM | T47D 24.9 µM | RPMI-8226 > 100 µM | NCI-H226 19.5 µM | COLO 205 > 100 µM | SK-OV-3 58.6 µM | K562 63.2 µM | SNB-19 50.6 µM | SK-MEL-2 > 100 µM | HOP-62 45.6 µM | TK-10 96.4 µM | SW-620 > 100 µM | MOLT-4 > 100 µM | 786-0 35.5 µM | ACHN > 100 µM | Hs-578T 34.8 µM

O=c1[nH]c(-n2[nH]c3c(c2=O)CCCC3)nc(O)c1-c1ccccc1
inactive: HT-29 > 100 µM | IGROV-1 > 100 µM | UACC-62 > 100 µM | T47D > 100 µM | RPMI-8226 > 100 µM | NCI-H226 > 100 µM | COLO 205 > 100 µM | SK-OV-3 > 100 µM | K562 > 100 µM | SNB-19 > 100 µM | OVCAR-8 > 100 µM | SK-MEL-2 > 100 µM | TK-10 > 100 µM | SW-620 > 100 µM | MOLT-4 > 100 µM | 786-0 > 100 µM | ACHN > 100 µM | Hs-578T > 100 µM

CSC1=C(C#N)C(=O)N(c2ccc(Cl)cc2)C(=O)C1C#N (centres undefined)
inactive: HT-29 > 100 µM | IGROV-1 > 100 µM | UACC-62 > 100 µM | T47D 74.8 µM | RPMI-8226 33.8 µM | NCI-H226 > 100 µM | COLO 205 > 100 µM | SK-OV-3 > 100 µM | K562 78.9 µM | SNB-19 > 100 µM | SK-MEL-2 > 100 µM | HOP-62 > 100 µM | TK-10 > 100 µM | SW-620 > 100 µM | MOLT-4 97.5 µM | 786-0 > 100 µM | ACHN > 100 µM | Hs-578T 77.8 µM

O=C(c1c(Cl)cc(Cl)cc1Cl)N(Cc1cccnc1)C(=S)N(Cc1cccnc1)C(=O)c1c(Cl)cc(Cl)cc1Cl
inactive: HT-29 2.97 µM | UACC-62 15.1 µM | T47D 14.4 µM | RPMI-8226 1.27 µM | NCI-H226 19 µM | COLO 205 4.73 µM | SK-OV-3 22.2 µM | K562 4.32 µM | SNB-19 20.2 µM | OVCAR-8 4.04 µM | SK-MEL-2 12.5 µM | HOP-62 4.35 µM | TK-10 3.93 µM | SW-620 4.14 µM | MOLT-4 6.84 µM | 786-0 2.26 µM | ACHN 19.1 µM | Hs-578T 23.9 µM

O=c1[nH]c2nc3ccccc3c(=O)n2/c1=C/c1ccccc1
inactive: HT-29 17.5 µM | IGROV-1 17.9 µM | UACC-62 28.6 µM | T47D 40.4 µM | RPMI-8226 34.9 µM | NCI-H226 18.7 µM | COLO 205 33.1 µM | SK-OV-3 > 100 µM | SNB-19 19.6 µM | OVCAR-8 28 µM | SK-MEL-2 > 100 µM | HOP-62 > 100 µM | TK-10 53.8 µM | SW-620 17.7 µM | MOLT-4 95.5 µM | 786-0 25.8 µM | ACHN 47 µM | Hs-578T 29 µM

CC1=NN(c2cccc(Cl)c2)C2(C1=Cc1ccc(O)cc1)C(Cl)C(=O)N2c1nc2ccccc2s1 (centres undefined)
inactive: HT-29 21.7 µM | IGROV-1 14.1 µM | T47D 15.8 µM | RPMI-8226 17.5 µM | NCI-H226 27.2 µM | SK-OV-3 22.8 µM | K562 18.6 µM | OVCAR-8 27 µM | SK-MEL-2 20.4 µM | HOP-62 20.9 µM | TK-10 37.7 µM | SW-620 15.4 µM | MOLT-4 14.2 µM | 786-0 24.3 µM | ACHN 19.7 µM | Hs-578T 40.6 µM

COC(=O)CCC(C)[C@H]1CCC2C3CC[C@@H]4CC5(CC[C@]4(C)C3C[C@H](OC(C)=O)[C@@]21C)OOC1(CCCCC1)OO5 (some centres undefined)
inactive: HT-29 14.2 µM | IGROV-1 2.12 µM | UACC-62 > 100 µM | T47D 2.75 µM | RPMI-8226 1.94 µM | NCI-H226 > 100 µM | COLO 205 6.17 µM | SK-OV-3 > 100 µM | K562 6.01 µM | SNB-19 > 100 µM | OVCAR-8 13.7 µM | SK-MEL-2 5.26 µM | HOP-62 8.89 µM | TK-10 > 100 µM | MOLT-4 6.11 µM | 786-0 12.1 µM | ACHN 8.32 µM | Hs-578T 13.4 µM

O=c1[nH]c(=O)n(C2CC(O)C(CO)O2)cc1C1=NC1 (centres undefined)
inactive: HT-29 > 100 µM | IGROV-1 > 100 µM | UACC-62 > 100 µM | T47D 35.2 µM | RPMI-8226 50.6 µM | NCI-H226 > 100 µM | COLO 205 > 100 µM | SK-OV-3 > 100 µM | SNB-19 > 100 µM | OVCAR-8 > 100 µM | SK-MEL-2 > 100 µM | HOP-62 > 100 µM | TK-10 > 100 µM | SW-620 > 100 µM | MOLT-4 > 100 µM | 786-0 > 100 µM | ACHN > 100 µM | Hs-578T > 100 µM

COC(=O)C(Cc1ccccc1)NC(=O)CSc1nnc(COc2ccc(Cl)cc2)n1-c1ccccc1 (centres undefined)
inactive: HT-29 23.4 µM | IGROV-1 27.5 µM | UACC-62 14.6 µM | T47D 26.1 µM | RPMI-8226 20.5 µM | NCI-H226 40.6 µM | COLO 205 20.4 µM | SK-OV-3 15.8 µM | K562 27.4 µM | SNB-19 49.9 µM | SK-MEL-2 17.7 µM | HOP-62 15 µM | TK-10 19.4 µM | SW-620 35.9 µM | MOLT-4 34 µM | 786-0 16.3 µM | ACHN 16.4 µM | Hs-578T 26.7 µM
